Test results as given in patent publication US3980707A, “Methylamino derivative of 2-ethylindandione-1,3 and the hydrochloride thereof” (priority 1973, dated 1976).
Counter-ions that a name gives are not always drawn.

Columns and labels:
[1] = Anticonvulsive activity and toxicity, general statements; format: in vivo; conditions: compared with the conventional anticonvulsants
[2] = Solubility and hydrolysis in water; format: physicochemical; conditions: hydrochlorides
[3] = test system: seizures induced by an electroshock; assay: Anticonvulsive effect in electroshock (intraperitoneal); format: in vivo, white rats and white mice
Experimental: Anticonvulsive effect of Metindione in electroshock was studied on white rats and white mice on a comparison basis with the well known drug phenobarbital. Both preparations were administered by intraperitoneal injections. The results are summarized in Tabl. 1 (confidence limits are indicated in parentheses; P = 0.05).

[4] = Extended every day administration / chronic toxicity; format: in vivo
conditioned reflexes = assay: Influence on rate of development of conditioned reflexes (learning); format: in vivo, white mice; conditions: for ET50 (medium time required for learning): confidence limits in parentheses, P=0.05
Excerpt: The influence of Metindione and Phenobarbital on learning has been studied on white mice.
(confidence limits are put in parentheses; P=0.05).

[5] = Acute toxicity (LD50, Table 1); design: species or system white rats and white mice; conditions: in vivo, ip; confidence limits in parentheses, P = 0.05; second ED50 column of Table 1
electroshock = assay: Thirty-day electroshock tests (habituation); format: in vivo; conditions: white mice

CCC1(NC)C(=O)c2ccccc2C1=O [2-methylamino-2-ethylindandione-1,3 hydrochloride]
anticonvulsant index [1]: high anticonvulsant index

CCC1(Nc2ccccc2)C(=O)c2ccccc2C1=O [2-aniline-2-ethylindandione-1,3 hydrochloride]
hydrolysis in water [2]: readily hydrolyzed in water

CCC1(NC)C(=O)c2ccccc2C1=O [Metindione, 2-methylamino-2-ethylindandione-1,3 hydrochloride]
ED50 ([3]; Rattus norvegicus, ip, electroshock, confidence limits in parentheses, P = 0.05): 3.6 mg/kg | Protective Index (in ratio of LD50 /ED50) ([3]; electroshock, i.p., confidence limits in parentheses, P = 0.05): 115 (89+149) | protective index higher than that of phenobarbital ([3]; in vivo): 14 times | anticonvulsive effect stronger than that of phenobarbital ([3]; seizures induced by an electroshock, relative to phenobarbital): ~4 times | toxic effect ([4]; extended every day administration, doses 15 times higher than the therapeutical average): no toxic effect | acute and chronic toxicity ([4]; in vivo): low acute and a low chronic toxicity | morphological internal organic changes ([4]; in vivo): does not cause any morphological internal organic changes | influence on normal development and growth of young animals ([4]; young animals): no adverse influence on normal development and growth of young animals | ET50 (medium time required for learning) (conditioned reflexes; dose 1/2 of ED50 of anticonv. action): 2.4(2.1+2.6) day | ET50 (medium time required for learning) (conditioned reflexes; dose 1 x ED50 of anticonv. action): 2.5(2.1+2.8) day | ET50 (medium time required for learning) (conditioned reflexes; dose 2 x ED50 of anticonv. action): 2.0(1.7+2.3) day | ET50 (medium time required for learning) (conditioned reflexes; dose 4 x ED50 of anticonv. action): 2.8(2.4+3.4) day | influence on rate of developing conditioned reflexes (conditioned reflexes; mouse, in vivo): did not influence the rate of developing conditioned reflexes | LD50 [5]: 415 mg/kg | necessity to increase initial dose / habit forming reaction (electroshock): no necessity to increase the initial dose
